target: T1, GST-RIPK1 (recombinant GST-RIPK1 kinase domain (residues 1-327)) (Homo sapiens, UniProt Q13546); assay: RIPK1-ADP-Glo enzymatic assay; format: biochemical; conditions: 25 nM GST-RIPK1, 300 μM ATP, 3 μM dephosphorylated-MBP; 30 minutes pre-incubation, 150 minutes reaction; ten-point titration
T1 construct: recombinant GST-RIPK1 kinase domain (residues 1-327) enzyme; made in house; host or cells: baculovirus-transfected Sf21 insect cells
T1 sequence (Q13546 1-327): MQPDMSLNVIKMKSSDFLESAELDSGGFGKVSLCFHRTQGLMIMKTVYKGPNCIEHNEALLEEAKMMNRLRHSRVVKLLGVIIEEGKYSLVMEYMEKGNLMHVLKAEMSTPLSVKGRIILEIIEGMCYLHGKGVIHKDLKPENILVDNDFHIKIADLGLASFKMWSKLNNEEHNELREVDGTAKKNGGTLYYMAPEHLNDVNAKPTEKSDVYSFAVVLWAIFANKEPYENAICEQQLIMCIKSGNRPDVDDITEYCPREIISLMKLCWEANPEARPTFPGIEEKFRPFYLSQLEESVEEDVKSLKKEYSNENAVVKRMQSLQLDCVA
Procedure, shortened: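 Ten-point 1:3 titrations from 100000 nM, 1% DMSO, were preincubated 30 min with 25 nM GST-RIPK1 (1-327) before starting with 300 μM ATP plus 3 μM dephosphorylated MBP; 150 min reaction. ADP-Glo luminescence measured ATP-to-ADP conversion; EC50 by four-parameter sigmoidal regression.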

| Compound | IC50 [µM] |
| --- | --- |
| N#Cc1cncc2c1O[C@H]1C[C@@H]2N(C(=O)C23CCC(C2)OC3)C1 (single isomer, unassigned) [Compound 1-50, (2S,5S)-4-[(S or R)-2-oxabicyclo[2.2.1]heptane-4-carbonyl]-2,3,4,5-tetrahydro-2,5-methanopyrido[3,4-f][1,4]oxazepine-9-carbonitrile] | 0.3 |
| CC1(C(=O)N2C[C@@H]3C[C@H]2c2cncc(C#N)c2O3)CC1(F)F (single isomer, unassigned) [Compound 1-29, (2S,5S)-4-[(S or R)-2,2-difluoro-1-methylcyclopropane-1-carbonyl]-2,3,4,5-tetrahydro-2,5-methanopyrido[3,4-f][1,4]oxazepine-9-carbonitrile] | 0.376 |
| N#Cc1cncc2c1O[C@H]1C[C@@H]2N(C(=O)C2(C(F)F)CCCC2)C1 [Compound 1-14, (2S,5S)-4-[1-(difluoromethyl)cyclopentane-1-carbonyl]-2,3,4,5-tetrahydro-2,5-methanopyrido[3,4-f][1,4]oxazepine-9-carbonitrile] | 0.051 |
| N#Cc1cncc2c1O[C@H]1C[C@@H]2N(C(=O)C23CCCC2C3)C1 (single isomer, unassigned) [Compound 1-33, (2S,5S)-4-[(1R,5R or 1S,5S)-bicyclo[3.1.0]hexane-1-carbonyl]-2,3,4,5-tetrahydro-2,5-methanopyrido[3,4-f][1,4]oxazepine-9-carbonitrile] | 0.094 |
| N#Cc1cncc2c1O[C@H]1C[C@@H]2N(C(=O)C23CC(Cl)(C2)C3)C1 [Compound 1-93, (2S,5S)-4-(3-chlorobicyclo[1.1.1]pentane-1-carbonyl)-2,3,4,5-tetrahydro-2,5-methanopyrido[3,4-f][1,4]oxazepine-9-carbonitrile] | 0.088 |
| CC1(C(=O)N2C[C@@H]3C[C@H]2c2cncc(C#N)c2O3)CCCC1 [Compound 1-5, (2S,5S)-4-(1-methylcyclopentane-1-carbonyl)-2,3,4,5-tetrahydro-2,5-methanopyrido[3,4-f][1,4]oxazepine-9-carbonitrile] | 0.022 |
| N#Cc1cncc2c1O[C@H]1C[C@@H]2N(C(=O)C23CCC(C#N)(C2)C3)C1 [Compound 1-100, (2S,5S)-4-(4-cyanobicyclo[2.1.1]hexane-1-carbonyl)-2,3,4,5-tetrahydro-2,5-methanopyrido[3,4-f][1,4]oxazepine-9-carbonitrile] | 0.028 |
| N#Cc1cncc2c1O[C@H]1C[C@@H]2N(C(=O)C2(C#N)CCCC2)C1 [Compound 1-111, (2S,5S)-4-(1-cyanocyclopentane-1-carbonyl)-2,3,4,5-tetrahydro-2,5-methanopyrido[3,4-f][1,4]oxazepine-9-carbonitrile] | 0.184 |
| CC1(C(=O)N2C[C@@H]3C[C@H]2c2cncc(C#N)c2O3)CC2CCC1C2 (stereo partly drawn) [Compound 1-69, (2S,5S)-4-(2-methylbicyclo[2.2.1]heptane-2-carbonyl)-2,3,4,5-tetrahydro-2,5-methanopyrido[3,4-f][1,4]oxazepine-9-carbonitrile] | 0.077 |
| CCC(C)(OC)C(=O)N1C[C@@H]2C[C@H]1c1cncc(C#N)c1O2 (single isomer, unassigned) [Compound 1-16, (2S,5S)-4-[2(S or R)-methoxy-2-methylbutanoyl]-2,3,4,5-tetrahydro-2,5-methanopyrido[3,4-f][1,4]oxazepine-9-carbonitrile] | 0.01 |
| COc1ccnc(N2CCC(F)(C(=O)N3C[C@@H]4C[C@H]3c3cncc(C#N)c3O4)CC2)n1 [Compound 1-56, (2S,5S)-4-(4-fluoro-1-(4-methoxypyrimidin-2-yl)piperidine-4-carbonyl)-2,3,4,5-tetrahydro-2,5-methanopyrido[3,4-f][1,4]oxazepine-9-carbonitrile] | 0.041 |
| CC(C)C12CC(C(=O)N3C[C@@H]4C[C@H]3c3cncc(C#N)c3O4)(C1)C2 [Compound 1-99, (2S,5S)-4-(3-isopropylbicyclo[1.1.1]pentane-1-carbonyl)-2,3,4,5-tetrahydro-2,5-methanopyrido[3,4-f][1,4]oxazepine-9-carbonitrile] | 0.048 |
| N#Cc1cncc2c1OC[C@H]1CC[C@@H]2N1C(=O)C12CCC(F)(CC1)C2 [Compound 5-1, (3R,6S)-11-(4-Fluorobicyclo[2.2.1]heptane-1-carbonyl)-3,4,5,6-tetrahydro-2H-3,6-epiminooxocino[3,2-c]pyridine-10-carbonitrile] | 0.095 |
| N#Cc1cncc2c1O[C@H]1C[C@@H]2N(C(=O)C2(C(F)(F)F)CCCC2)C1 [Compound 1-13, (2S,5S)-4-[1-(trifluoromethyl)cyclopentane-1-carbonyl]-2,3,4,5-tetrahydro-2,5-methanopyrido[3,4-f][1,4]oxazepine-9-carbonitrile] | 0.13 |

Other lines, results leading:

| IC50 [µM] | Compound |
| --- | --- |
| 0.078 | O=C(N1C[C@@H]2C[C@H]1c1cncc(C#CCO)c1O2)C12CCC(C(F)(F)F)(CC1)C2 [Compound 2-57, ((2S,5S)-9-(3-hydroxyprop-1-yn-1-yl)-2,3-dihydro-2,5-methanopyrido[3,4-f][1,4]oxazepin-4(5H)-yl)(4-(trifluoromethyl)bicyclo[2.2.1]heptan-1-yl)methanone] |
| 0.028 | CC(C)(C(=O)N1C[C@@H]2C[C@H]1c1cncc(C#Cc3cncc(Cl)c3)c1O2)C(F)F [Compound 2-90, 1-((2S,5S)-9-((5-chloropyridin-3-yl)ethynyl)-2,3-dihydro-2,5-methanopyrido[3,4-f][1,4]oxazepin-4(5H)-yl)-3,3-difluoro-2,2-dimethylpropan-1-one] |
| 0.156 | O=C(N1C[C@@H]2C[C@H]1c1cncc(F)c1O2)C12CCC(C1)C2 [Compound 2-30, bicyclo[2.1.1]hexan-1-yl((2S,5S)-9-fluoro-2,3-dihydro-2,5-methanopyrido[3,4-f][1,4]oxazepin-4(5H)-yl)methanone] |
| 0.266 | CC(C)(C(=O)N1C[C@@H]2C[C@H]1c1cncc(C#CCCC(F)(F)F)c1O2)C(F)F [Compound 2-111, 3,3-difluoro-2,2-dimethyl-1-((2S,5S)-9-(5,5,5-trifluoropent-1-yn-1-yl)-2,3-dihydro-2,5-methanopyrido[3,4-f][1,4]oxazepin-4(5H)-yl)propan-1-one] |
| 0.019 | COc1ccc(C#Cc2cncc3c2O[C@H]2C[C@@H]3N(C(=O)C(C)(C)C(F)F)C2)cn1 [Compound 2-92, 3,3-difluoro-1-((2S,5S)-9-((6-methoxypyridin-3-yl)ethynyl)-2,3-dihydro-2,5-methanopyrido[3,4-f][1,4]oxazepin-4(5H)-yl)-2,2-dimethylpropan-1-one] |
| 0.017 | O=C(N1C[C@@H]2C[C@H]1c1cncc(C#Cc3cccnn3)c1O2)C12CCC(C(F)(F)F)(CC1)C2 [Compound 2-51, ((2S,5S)-9-(pyridazin-3-ylethynyl)-2,3-dihydro-2,5-methanopyrido[3,4-f][1,4]oxazepin-4(5H)-yl)(4-(trifluoromethyl)bicyclo [2.2.1]heptan-1-yl)methanone] |
| 0.018 | O=C(N1C[C@@H]2C[C@H]1c1cncc(C#Cc3ccccc3)c1O2)C12CCC(F)(CC1)C2 [Compound 2-97, (4-Fluorobicyclo[2.2.1]heptan-1-yl)((2S,5S)-9-(phenylethynyl)-2,3-dihydro-2,5-methanopyrido[3,4-f][1,4]oxazepin-4(5H)-yl)methanone] |
| 0.083 | CC(C)(C(=O)N1C[C@@H]2C[C@H]1c1cncc(C#Cc3cnccn3)c1O2)C(F)F [Compound 2-49, 3,3-difluoro-2,2-dimethyl-1-((2S,5S)-9-(pyrazin-2-ylethynyl)-2,3-dihydro-2,5-methanopyrido[3,4-f][1,4]oxazepin-4(5H)-yl)propan-1-one] |
| 0.067 | CC(F)(F)C(C)(C)C(=O)N1C[C@@H]2C[C@H]1c1cncc(F)c1O2 [Compound 2-22, 3,3-difluoro-1-((2S,5S)-9-fluoro-2,3-dihydro-2,5-methanopyrido[3,4-f][1,4]oxazepin-4(5H)-yl)-2,2-dimethylbutan-1-one] |
| 0.03 | O=C(N1C[C@@H]2C[C@H]1c1cncc(C#Cc3ccncc3)c1O2)C12CCC(C(F)(F)F)(CC1)C2 [Compound 2-52, ((2S,5S)-9-(pyridin-4-ylethynyl)-2,3-dihydro-2,5-methanopyrido[3,4-f][1,4]oxazepin-4(5H)-yl)(4-(trifluoromethyl)bicyclo [2.2.1]heptan-1-yl)methanone] |
| 0.013 | O=C(N1C[C@@H]2C[C@H]1c1cncc(C#Cc3cncnc3)c1O2)C12CCC(F)(CC1)C2 [Compound 2-102, (4-fluorobicyclo[2.2.1]heptan-1-yl)((2S,5S)-9-(pyrimidin-5-ylethynyl)-2,3-dihydro-2,5-methanopyrido[3,4-f][1,4]oxazepin-4(5H)-yl)methanone] |
| 1.21 | CC(F)(F)C(C)(C)C(=O)N1C[C@@H]2C[C@H]1c1cncnc1O2 [Compound 3-2, 1-((5S,8S)-7,8-dihydro-5,8-methanopyrimido[5,4-f][1,4]oxazepin-6(5H)-yl)-3,3-difluoro-2,2-dimethylbutan-1-one] |
| 0.049 | COc1ncc(C#Cc2cncc3c2O[C@H]2C[C@@H]3N(C(=O)C(C)(C)C(F)F)C2)c(OC)n1 [Compound 2-94, 1-((2S,5S)-9-((2,4-dimethoxypyrimidin-5-yl)ethynyl)-2,3-dihydro-2,5-methanopyrido[3,4-f][1,4]oxazepin-4(5H)-yl)-3,3-difluoro-2,2-dimethylpropan-1-one] |

From US20240228506A1, “RIPK1 INHIBITORS AND METHODS OF USE” (Merck Sharp & Dohme LLC, priority 2021, published 2024)
